The values below come from ChEMBL document CHEMBL3085636, “Further optimization of plakortin pharmacophore: structurally simple 4-oxymethyl-1,2-dioxanes with promising antimalarial activity” (Eur J Med Chem, 2013).

The first assay concerns Plasmodium falciparum. As to the kind of experiment: Antimalarial activity against chloroquine-resistant Plasmodium falciparum W2 after 72 hrs by parasite lactate dehydrogenase assay. The format is functional, organism-based. Conditions: W2, 72 h.
As to `CCCC[C@@]1(OC)OOC(C)(C)C[C@@H]1CO`, the half-maximal inhibitory concentration (IC50) (usually the concentration at which inhibition is half-maximal) stood at 7300 nM.
The compound `CCCC[C@]1(C)C[C@H](CO)[C@](CCCC)(OC)OO1` had an IC50 of 1900 nM.
The same measure, in the same setting: the same measure for `CCCC[C@@]1(C)C[C@H](CO)[C@](CCCC)(OC)OO1`: 2300 nM; for `CCCC[C@]1(C)C[C@H](CO)[C@@](CCCC)(OC)OO1`: 11200 nM; for `CCCCC1(CCCC)C[C@H](CO)[C@](CCCC)(OC)OO1`: 1600 nM.
On to `CCCCC1(CCCC)C[C@H](CO)[C@@](CCCC)(OC)OO1`, for which the concentration for half-maximal inhibition (IC50) was 1000 nM.
On the same count and under the same terms, under `COC[C@H]1CC(C)(C)OO[C@@]1(C)OC` stands above 30000 nM; under `COC[C@H]1CC(C)(C)OO[C@]1(C)OC`, above 30000 nM.
On the same count and under the same terms, under `CCCC[C@@]1(OC)OOC(C)(C)C[C@@H]1COC` stands 2800 nM.
`CCCC[C@]1(OC)OOC(C)(C)C[C@@H]1COC` had an IC50 above 30000 nM.
For `CCCCC1(CCCC)C[C@H](COC)[C@](C)(OC)OO1`, the 50% inhibitory concentration (IC50) worked out at 1700 nM.
`CCCCC1(CCCC)C[C@H](COC)[C@@](C)(OC)OO1` registered a 50% inhibitory concentration (IC50) of 1500 nM.
Same read-out and setting: under `CCCC[C@]1(C)C[C@H](COC)[C@](CCCC)(OC)OO1` stands 500 nM; under `CCCC[C@@]1(C)C[C@H](COC)[C@](CCCC)(OC)OO1`, 700 nM.
Still for that read-out and setting: under `CCCC[C@]1(C)C[C@H](COC)[C@@](CCCC)(OC)OO1` stands 2000 nM; under `CCCC[C@@]1(C)C[C@H](COC)[C@@](CCCC)(OC)OO1`, 1200 nM.
The same measure, in the same setting: under `CCCCC1(CCCC)C[C@H](COC)[C@](CCCC)(OC)OO1` stands 700 nM; under `CCCCC1(CCCC)C[C@H](COC)[C@@](CCCC)(OC)OO1`, 1000 nM.

A further assay relates to Plasmodium falciparum. The experiment in a line: Antimalarial activity against chloroquine-sensitive Plasmodium falciparum D10 after 72 hrs by parasite lactate dehydrogenase assay. Conditions: D10, 72 h. The format is functional, organism-based.
`CCCC[C@@]1(OC)OOC(C)(C)C[C@@H]1CO` gave a half-maximal inhibitory concentration (IC50) of 17200 nM.
`CCCC[C@]1(C)C[C@H](CO)[C@](CCCC)(OC)OO1` showed an IC50 of 5400 nM.
Still for that read-out and setting: under `CCCC[C@@]1(C)C[C@H](CO)[C@](CCCC)(OC)OO1` stands 6000 nM; under `CCCC[C@]1(C)C[C@H](CO)[C@@](CCCC)(OC)OO1`, above 30000 nM.
In turn, `CCCCC1(CCCC)C[C@H](CO)[C@](CCCC)(OC)OO1` came in with an IC50 of 4000 nM.
`CCCCC1(CCCC)C[C@H](CO)[C@@](CCCC)(OC)OO1` had a concentration for half-maximal inhibition (IC50) of 2400 nM.
In the case of `COC[C@H]1CC(C)(C)OO[C@@]1(C)OC`, the 50% inhibitory concentration (IC50) is above 30000 nM.
Turning to `COC[C@H]1CC(C)(C)OO[C@]1(C)OC`, the half-maximal inhibitory concentration (IC50) was above 30000 nM.
The compound `CCCC[C@@]1(OC)OOC(C)(C)C[C@@H]1COC` showed an IC50 of 8600 nM.
On the same count and under the same terms, the same measure for `CCCC[C@]1(OC)OOC(C)(C)C[C@@H]1COC`: above 30000 nM.
On the same count and under the same terms, the same measure for `CCCC[C@]1(C)C[C@H](COC)[C@](CCCC)(OC)OO1`: 800 nM.
Take `CCCC[C@@]1(C)C[C@H](COC)[C@](CCCC)(OC)OO1`: the IC50 is 900 nM.
On the same count and under the same terms, the same measure for `CCCC[C@]1(C)C[C@H](COC)[C@@](CCCC)(OC)OO1`: 4300 nM; for `CCCC[C@@]1(C)C[C@H](COC)[C@@](CCCC)(OC)OO1`: 2300 nM.
